Measured values: ChEMBL document CHEMBL1125487, “Acetazolamide-like carbonic anhydrase inhibitors with topical ocular hypotensive activity” (J Med Chem, 1992)
In brackets after ≈: the same amount, converted by molar mass. Several values for one entry are separate records, joined by “and”; a condition that tells them apart may be missing. Equal values may be shown once.

Columns and labels:
Carbonic anhydrase = format: protein assay
Description: Inhibition of Carbonic anhydrase enzyme in rabbits

Oryctolagus cuniculus [1] = species on record: Oryctolagus cuniculus; assay: Effect on intraocular pressure in right eye was tested by using transition ocular hypertension model at basal condition; format: functional
Oryctolagus cuniculus [2] = species on record: Oryctolagus cuniculus; assay: Effect on intraocular pressure in right eye was tested by using transition ocular hypertension model at 0 min.; format: functional
Oryctolagus cuniculus [3] = species on record: Oryctolagus cuniculus; assay: Effect on intraocular pressure in right eye was tested by using transition ocular hypertension model at 10 min.; format: functional
Oryctolagus cuniculus [4] = species on record: Oryctolagus cuniculus; assay: Effect on intraocular pressure in right eye was tested by using transition ocular hypertension model at 20 min.; format: functional
Oryctolagus cuniculus [5] = species on record: Oryctolagus cuniculus; assay: Effect on intraocular pressure in right eye was tested by using transition ocular hypertension model at 40 min.; format: functional
Oryctolagus cuniculus [6] = species on record: Oryctolagus cuniculus; assay: Effect on intraocular pressure in left eye was tested by using transition ocular hypertension model at 20 min.; format: functional
Oryctolagus cuniculus [7] = species on record: Oryctolagus cuniculus; assay: Effect on intraocular pressure in left eye was tested by using transition ocular hypertension model at 40 min.; format: functional
Oryctolagus cuniculus [8] = species on record: Oryctolagus cuniculus; assay: Effect on intraocular pressure in left eye was tested by using transition ocular hypertension model at basal condition; format: functional
Oryctolagus cuniculus [9] = species on record: Oryctolagus cuniculus; assay: Effect on intraocular pressure in left eye was tested by using transition ocular hypertension model at 0 min.; format: functional
Oryctolagus cuniculus [10] = species on record: Oryctolagus cuniculus; assay: Effect on intraocular pressure in left eye was tested by using transition ocular hypertension model at 10 min.; format: functional
physchem = conditions: phosphate buffer
Description: Solubility (in phosphate buffer)

Oryctolagus cuniculus [11] = assay: Effect on intraocular pressure in right eye was tested by using transition ocular hypertension model at 0 min (after 4 hr administration); format: functional
Oryctolagus cuniculus [12] = assay: Effect on intraocular pressure in right eye was tested by using transition ocular hypertension model at 0 min (after 8 hr administration); format: functional
Oryctolagus cuniculus [13] = assay: Effect on intraocular pressure in right eye was tested by using transition ocular hypertension model at basal condition (after 4 hr administration); format: functional
Oryctolagus cuniculus [14] = assay: Effect on intraocular pressure in right eye was tested by using transition ocular hypertension model at basal condition (after 8 hr administration); format: functional
Oryctolagus cuniculus [15] = assay: Effect on intraocular pressure in right eye was tested by using transition ocular hypertension model at 10 min. (after 4 hr administration); format: functional
Oryctolagus cuniculus [16] = assay: Effect on intraocular pressure in right eye was tested by using transition ocular hypertension model at 10 min. (after 8 hr administration); format: functional
Oryctolagus cuniculus [17] = assay: Effect on intraocular pressure in right eye was tested by using transition ocular hypertension model at 20 min. (after 4 hr administration); format: functional
Oryctolagus cuniculus [18] = assay: Effect on intraocular pressure in right eye was tested by using transition ocular hypertension model at 20 min. (after 8 hr administration); format: functional
Oryctolagus cuniculus [19] = assay: Effect on intraocular pressure in right eye was tested by using transition ocular hypertension model at 40 min. (after 4 hr administration); format: functional
Oryctolagus cuniculus [20] = assay: Effect on intraocular pressure in right eye was tested by using transition ocular hypertension model at 40 min. (after 8 hr administration); format: functional
Oryctolagus cuniculus [21] = assay: Effect on intraocular pressure in left eye was tested by using transition ocular hypertension model at basal condition (after 8 hr administration); format: functional
Oryctolagus cuniculus [22] = assay: Effect on intraocular pressure in left eye was tested by using transition ocular hypertension model at 10 min. (after 4 hr administration); format: functional
Oryctolagus cuniculus [23] = assay: Effect on intraocular pressure in left eye was tested by using transition ocular hypertension model at 10 min. (after 8 hr administration); format: functional
Oryctolagus cuniculus [24] = assay: Effect on intraocular pressure in left eye was tested by using transition ocular hypertension model at 20 min. (after 4 hr administration); format: functional
Oryctolagus cuniculus [25] = assay: Effect on intraocular pressure in left eye was tested by using transition ocular hypertension model at 20 min. (after 8 hr administration); format: functional
Oryctolagus cuniculus [26] = assay: Effect on intraocular pressure in left eye was tested by using transition ocular hypertension model at 40 min. (after 4 hr administration); format: functional
Oryctolagus cuniculus [27] = assay: Effect on intraocular pressure in left eye was tested by using transition ocular hypertension model at 40 min. (after 8 hr administration); format: functional
Oryctolagus cuniculus [28] = assay: Effect on intraocular pressure in left eye was tested by using transition ocular hypertension model at basal condition (after 4 hr administration); format: functional
Oryctolagus cuniculus [29] = assay: Effect on intraocular pressure in left eye was tested by using transition ocular hypertension model at 0 min. (after 4 hr administration); format: functional
Oryctolagus cuniculus [30] = assay: Effect on intraocular pressure in left eye was tested by using transition ocular hypertension model at 0 min. (after 8 hr administration); format: functional
[31] = buffer
Description: Solubility (in phosphate buffer)

IC50 (Carbonic anhydrase) [µM]	solubility (physchem) [mM]	SMILES	IOP (Oryctolagus cuniculus [1]) [mmHg]	IOP (Oryctolagus cuniculus [2]) [mmHg]	IOP (Oryctolagus cuniculus [3]) [mmHg]	IOP (Oryctolagus cuniculus [4]) [mmHg]	IOP (Oryctolagus cuniculus [5]) [mmHg]	IOP (Oryctolagus cuniculus [6]) [mmHg]	IOP (Oryctolagus cuniculus [7]) [mmHg]	IOP (Oryctolagus cuniculus [8]) [mmHg]	IOP (Oryctolagus cuniculus [9])	IOP (Oryctolagus cuniculus [10]) [mmHg]	other results
	8.9 (≈ 2740 µg/mL)	CCOC(=O)CCC(=O)Nc1nnc(S(N)(=O)=O)s1	15.33	13.33	20.33	17.33	15.67	20.67	17.67	15.33	15.5 mmHg	25.67	
0.52	31 (≈ 9120 µg/mL)	NS(=O)(=O)c1nnc(NC(=O)CCCC(=O)O)s1	15.5	14.67	21.17	19	16.5	22	17.83	15.5	15.33 mmHg	25.5	
	25 (≈ 7710 µg/mL)	NS(=O)(=O)c1nnc(NC(=O)CCCCC(=O)O)s1	16.83	16.33		20	17.17	21.67	18	16.33	16.17 mmHg and 22 mmHg	25.17	
0.91	< 1	COC(=O)CCCCCCCC(=O)Nc1nnc(S(N)(=O)=O)s1											
0.55	3.2 (≈ 942 µg/mL)	COC(=O)CCC(=O)Nc1nnc(S(N)(=O)=O)s1	15.67	15.17	25.33	19.5	16.5	20.17	16.67	15.83	16.17 mmHg	25.5	
	60.7 (≈ 17000 µg/mL)	NS(=O)(=O)c1nnc(NC(=O)CCC(=O)O)s1	15.67	14.33	19.33	17.17	15.67	21.67	19	15.5	15.5 mmHg	26	IOP (Oryctolagus cuniculus [11]): 13.33 mmHg; IOP (Oryctolagus cuniculus [12]): 14.83 mmHg; IOP (Oryctolagus cuniculus [13]): 15.5 mmHg; IOP (Oryctolagus cuniculus [14]): 15.67 mmHg; IOP (Oryctolagus cuniculus [15]): 18.5 mmHg; IOP (Oryctolagus cuniculus [16]): 22.23 mmHg; IOP (Oryctolagus cuniculus [17]): 18.33 mmHg; IOP (Oryctolagus cuniculus [18]): 18.67 mmHg; IOP (Oryctolagus cuniculus [19]): 16.33 mmHg; IOP (Oryctolagus cuniculus [20]): 16.5 mmHg; IOP (Oryctolagus cuniculus [21]): 15.67 mmHg; IOP (Oryctolagus cuniculus [22]): 25.83 mmHg; IOP (Oryctolagus cuniculus [23]): 26.17 mmHg; IOP (Oryctolagus cuniculus [24]): 22 mmHg; IOP (Oryctolagus cuniculus [25]): 21.5 mmHg; IOP (Oryctolagus cuniculus [26]): 18.83 mmHg; IOP (Oryctolagus cuniculus [27]): 18.67 mmHg; IOP (Oryctolagus cuniculus [28]): 15.5 mmHg; IOP (Oryctolagus cuniculus [29]): 15.33 mmHg; IOP (Oryctolagus cuniculus [30]): 15.67 mmHg
0.91	11.5 (≈ 3550 µg/mL)	COC(=O)CCCC(=O)Nc1nnc(S(N)(=O)=O)s1											
0.44		NCCCCC(=O)Nc1nnc(S(N)(=O)=O)s1	15.83	15	24	20.83	16.83	21.5	17.33	15.5	15.83 mmHg	26.17	S [31]: 8.8 mM
0.23	< 1	COC(=O)CCCCC(=O)Nc1nnc(S(N)(=O)=O)s1											
0.48	21.6 (≈ 7570 µg/mL)	NS(=O)(=O)c1nnc(NC(=O)CCCCCCCC(=O)O)s1	15.83	16.17	25.17	19.5	17	20.67	17.5	16	16 mmHg	26.5	

More lines, now with the values behind:

SMILES	IC50 (Carbonic anhydrase) [µM]	solubility (physchem) [mM]	IOP (Oryctolagus cuniculus [1]) [mmHg]	IOP (Oryctolagus cuniculus [2]) [mmHg]	IOP (Oryctolagus cuniculus [3]) [mmHg]	IOP (Oryctolagus cuniculus [4]) [mmHg]	IOP (Oryctolagus cuniculus [5]) [mmHg]	IOP (Oryctolagus cuniculus [6]) [mmHg]	IOP (Oryctolagus cuniculus [7]) [mmHg]	IOP (Oryctolagus cuniculus [8]) [mmHg]	IOP (Oryctolagus cuniculus [9])	IOP (Oryctolagus cuniculus [10]) [mmHg]	other results
CCCCCOC(=O)CCC(=O)/N=c1/sc(S(N)(=O)=O)nn1C	0.31	1.4 (≈ 510 µg/mL)	15.67	15.5	20.67	25.17	22	20.67	17.83	15.83	15.33 mmHg	24	
COC(=O)CCC(=O)/N=c1/sc(S(N)(=O)=O)nn1C	0.45	7.3 (≈ 2250 µg/mL)	15.5	14.83	24.67	20.83	17.33	21.5	17.83	15.33	16 mmHg	25.83	
CCC(C)OC(=O)CCC(=O)Nc1nnc(S(N)(=O)=O)s1 (configuration not stated)	0.37	3.7 (≈ 1240 µg/mL)	15.67	14.67	21.5	19	16.67	21.17	17.17	15.33	15.5 mmHg	25.67	
CCCCCOC(=O)CCC(=O)Nc1nnc(S(N)(=O)=O)s1	0.39	1.3 (≈ 456 µg/mL)	15.83	15	22.67	20	17.83	21.33	18.83	15.67	15.67 mmHg	24.5	
CC(C)(C)NC[C@H](O)COc1nsnc1N1CCOCC1 [TIMOLOL]			18.53	15.77	18.57	19.38	18.77	21.97	18.77	18.53	16.84 mmHg	25.84	
COC(=O)CC(=O)Nc1nnc(S(N)(=O)=O)s1	0.94	16 (≈ 4480 µg/mL)	16.17	15.87	23.17	19.67	17	22.5	19.17	16.33	16.17 mmHg	27.17	
CCCCCCCCCCCCOC(=O)CCC(=O)Nc1nnc(S(N)(=O)=O)s1	0.52												
